The values that follow come from patent publication US9884843B2 (Peloton Therapeutics, Inc., priority 2013, dated 2018).

In assay [1] the test system is HIF-2α HIS TAG-PASB Domain. The experiment in a line: biochemical. In kind it is binding. The source says:
(§1) The term “scintillation proximity assay” (SPA) refers to a homogenous assay in which light is emitted when a radiolabeled ligand is brought into close proximity to a radiosensitive bead. The assay typically contains a target protein that contains a tag (e.g., His Tag, Glutathione S-transferase Tag). The tag on the protein is used to bind the target protein to the scintillation bead. Radiolabeled ligand (e.g., labeled with tritium) that binds to the protein is now in close proximity to the bead, and when the raidolabel (e.g., tritium) decays, the high energy particle hits the bead resulting in the emission of light that is detected by a detector, such as photomultiplier tube or CCD camera. When unlabeled ligands or compounds that bind to the protein are used in the assay, they displace the radiolabeled ligand, resulting in loss of signal.
(§2) The total assay volume was about 100 μL in the following configuration: 2-μL compound in DMSO, 88 μL buffer with protein and probe and 10 μL of SPA beads. […] To each compound, 88 μL of the buffer solution was then added. […] The percent inhibition was determined and IC50 values were calculated using the Dotmatics system based on the following equation: % inhibition=[(high control−sample)/(high control−low control)]×100.

A further assay has as its system 786-O-Hif-Luc cells. The experiment in a line: Luciferase Assay (HIF responsive element reporter). Format: cell-based. Conditions: read-out: Mean Luciferease EC50. On the procedure:
A pool of infected cells were then selected against 2 μg/mL of puromycin (P8833, Sigma) for 10 days followed by limited dilution to select single clones.
Each concentration was tested in triplicate. After about 24 hours, luciferase activity was determined using ONE-Glo Luciferase Assay Reagent (E6110, Promega) following the manufacturer's recommended procedure. EC50 were calculated by using Dotmatics software.

In assay [2] the test system is VEGF in culture medium of 786-O cells. Kind of assay: VEGF ELISA Assay. Format: cell-based. The method, then: Four hours later, serial dilutions of 10× compound stocks were made in growth medium from 500×DMSO stocks, and 20 μL of those 10× stocks were added to each well to make final concentrations as follows (μM): 20, 6.7, 2.2, 0.74, 0.25, 0.082, 0.027, 0.009, 0.003, 0.001, 0. Each concentration had duplicated wells. About twenty hours later, the growth medium was removed by suction and each well was supplied with 180 μL of growth medium. About 20 μl freshly-made 10× compound stocks were added to each well. […] The EC50 was calculated by GraphPad Prism using the dose-response-inhibition (four parameter) equation. The cell seeded plate was then subjected to CellTiter-Glo luminescence cell viability assay (Promega) by adding about 50 μL of Celltiter Glo reagent into each well and shaking the plate for 8 minutes at 550 rpm (Thermomixer R, Eppendorf). The luminescence signals were read in a plate reader (3 second delay, 0.5 second/well integration time, Synergy 2 multi Detection Microplate reader) immediately.

Assay [3] concerns the target HIF-2α HIS TAG-PASB Domain (Homo sapiens, UniProt Q99814). Kind of assay: biochemical. In kind it is binding.
Text: as §1, §2

Setting [4] is: 786-O-Hif-Luc cells, about 24 hours.
The mark [5] stands for this setting: displacement of Compound 120 probe, mean, read-out: Mean SPA IC50.
The mark [6] stands for this setting: 24 h, 786-O-Hif-Luc cells, about 24 hours.

Read-outs that look alike come from different tables or passages of the source.

Chain of HIF-2α HIS TAG-PASB Domain (Homo sapiens, UniProt Q99814) (Q99814 whole entry, looked up, the tested form may be a part): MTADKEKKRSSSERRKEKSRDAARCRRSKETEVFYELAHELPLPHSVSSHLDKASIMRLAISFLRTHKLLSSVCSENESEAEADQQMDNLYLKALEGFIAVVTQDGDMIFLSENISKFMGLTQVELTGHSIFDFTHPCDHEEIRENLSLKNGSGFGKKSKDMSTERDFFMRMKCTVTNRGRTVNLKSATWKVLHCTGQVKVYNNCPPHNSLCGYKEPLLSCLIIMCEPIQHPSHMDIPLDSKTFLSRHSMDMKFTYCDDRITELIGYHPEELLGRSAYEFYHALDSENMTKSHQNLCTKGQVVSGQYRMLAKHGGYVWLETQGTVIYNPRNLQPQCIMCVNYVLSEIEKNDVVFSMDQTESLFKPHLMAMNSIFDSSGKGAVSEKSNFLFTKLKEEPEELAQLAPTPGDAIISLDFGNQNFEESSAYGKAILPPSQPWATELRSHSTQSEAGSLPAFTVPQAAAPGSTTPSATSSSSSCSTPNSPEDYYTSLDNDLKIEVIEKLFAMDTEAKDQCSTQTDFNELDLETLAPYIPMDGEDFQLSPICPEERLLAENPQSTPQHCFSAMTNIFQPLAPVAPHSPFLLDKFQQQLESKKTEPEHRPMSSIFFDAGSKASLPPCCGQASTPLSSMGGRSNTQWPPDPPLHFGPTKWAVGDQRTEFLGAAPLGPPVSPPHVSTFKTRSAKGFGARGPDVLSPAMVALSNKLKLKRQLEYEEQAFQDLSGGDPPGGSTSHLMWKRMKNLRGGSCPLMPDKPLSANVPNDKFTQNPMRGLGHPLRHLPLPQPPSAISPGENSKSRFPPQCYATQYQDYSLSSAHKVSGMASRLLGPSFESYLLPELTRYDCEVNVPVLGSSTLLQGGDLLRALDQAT

As to `O=S1(=O)C[C@@H](O)c2c1ccc(Oc1cc(F)cc(Cl)c1)c2Br` [(3S)-4-bromo-5-(3-chloro-5-fluoro-phenoxy)-1,1-dioxo-2,3-dihydrobenzothiophen-3-ol], in assay [1] (unnumbered compounds listed by structure and name, read-out: IC50 value in SPA), the IC50 is above 100000 nM.
`N#Cc1c(Oc2cc(F)cc(Cl)c2)ccc2c1C(O)CS2(=O)=O` (stereo not shown) [Compound 7, 5-(3-chloro-5-fluorophenoxy)-3-hydroxy-2,3-dihydrobenzo[b]thiophene-4-carbonitrile 1,1-dioxide]: the EC50 in the assay on 786-O-Hif-Luc cells (setting [4]) is 450 nM; in assay [2] (Homo sapiens, 786-0) it was 330 nM.
`O=S1(=O)c2ccc(Oc3cc(F)cc(Cl)c3)c(Br)c2C(O)C1(F)F` (stereo not shown) [Compound 9, 4-Bromo-5-(3-chloro-5-fluorophenoxy)-2,2-difluoro-3-hydroxy-2,3-dihydrobenzo[b]thiophene 1,1-dioxide]: in assay [3] (setting [5]), the IC50 is 2 nM. The EC50 in the assay with 786-O-Hif-Luc cells (setting [4]) was found to be 50 nM; in assay [2] (Homo sapiens, 786-0), 65 nM.
In the case of `N#Cc1c(Oc2cc(F)cc(Cl)c2)ccc2c1C(O)C(F)(F)S2(=O)=O` (stereo not shown) [Compound 10, 5-(3-chloro-5-fluorophenoxy)-2,2-difluoro-3-hydroxy-2,3-dihydrobenzo[b]thiophene-4-carbonitrile 1,1-dioxide], the IC50 in assay [1] (setting [5]) was 45 nM. Moreover, in the assay on 786-O-Hif-Luc cells (setting [4]), the EC50 amounted to 4170 nM.
Turning to `Cc1c(Oc2cc(F)cc(Cl)c2)ccc2c1C(O)C(F)(F)S2(=O)=O` (stereo not shown) [Compound 13, 5-(3-Chloro-5-fluorophenoxy)-2,2-difluoro-3-hydroxy-4-methyl-2,3-dihydrobenzo[b]thiophene 1,1-dioxide], in assay [1] (setting [5]), the IC50 was determined as 15 nM. Moreover, the concentration for a half-maximal effect (EC50) in the assay on 786-O-Hif-Luc cells (24 h) is 450 nM.
For the molecule `O=S1(=O)c2ccc(Oc3cc(F)cc(Cl)c3)cc2C(O)C1(F)F` (stereo not shown) [Compound 16, 5-(3-Chloro-5-fluorophenoxy)-2,2-difluoro-3-hydroxy-2,3-dihydrobenzo[b]thiophene 1,1-dioxide], the IC50 in assay [1] (setting [5]) was 1880 nM.
On to `NC1c2c(ccc(Oc3cc(F)cc(F)c3)c2Br)S(=O)(=O)C1(F)F` (stereo not shown) [Compound 30, 3-Amino-4-bromo-5-(3,5-difluorophenoxy)-2,2-difluoro-2,3-dihydrobenzo[b]thiophene 1,1-dioxide], for which, in assay [3] (setting [5]), the half-maximal inhibitory concentration (IC50) was below 5 nM. The half-maximal effective concentration (EC50) in the assay on 786-O-Hif-Luc cells (setting [4]) was 1700 nM.
As for `N=S1(=O)c2ccc(Oc3cc(F)cc(F)c3)c(Br)c2C(O)C1(F)F` (stereo not shown) [Compound 31, 4-Bromo-5-(3,5-difluorophenoxy)-2,2-difluoro-3-hydroxy-1-imino-2,3-dihydro-1H-1λ^4-benzo[b]thiophene 1-oxide], the IC50 in assay [3] (setting [5]) is 4140 nM. In the assay on 786-O-Hif-Luc cells (setting [6]), the EC50 amounted to 540 nM.
Consider `O=S1(=O)c2ccc(Oc3cncc(Cl)c3)c(C(F)F)c2C(O)C1(F)F` (stereo not shown) [Compound 35, 5-((5-Chloropyridin-3-yl)oxy)-4-(difluoromethyl)-2,2-difluoro-3-hydroxy-2,3-dihydrobenzo[b]thiophene 1,1-dioxide], for which the half-inhibitory concentration (IC50) in assay [1] (setting [5]) came to 230 nM. Besides, the EC50 in the assay with 786-O-Hif-Luc cells (24 h) was found to be 150 nM.
`N#Cc1cncc(Oc2ccc3c(c2C(F)F)C(O)C(F)(F)S3(=O)=O)c1` (stereo not shown) [Compound 37, 5-((4-(Difluoromethyl)-2,2-difluoro-3-hydroxy-1,1-dioxido-2,3-dihydrobenzo[b]thiophen-5-yl)oxy)nicotinonitrile]: in assay [1] (setting [5]), the IC50 turned out to be 120 nM. For the same molecule, the EC50 in the assay on 786-O-Hif-Luc cells (setting [4]) was determined as 170 nM.
Regarding `N#Cc1cc(F)cc(Oc2ccc3c(c2C(F)F)C(=O)C(F)(F)S3(=O)=O)c1` [Compound 39, 3-((4-(Difluoromethyl)-2,2-difluoro-1,1-dioxido-3-oxo-2,3-dihydrobenzo[b]thiophen-5-yl)oxy)-5-fluorobenzonitrile], the IC50 in assay [1] (setting [5]) turned out to be 2420 nM. For the same molecule, the EC50 in the assay with 786-O-Hif-Luc cells (setting [4]) amounted to 2790 nM.
On to `[2H][C@@]1(O)c2c(ccc(Oc3cc(F)cc(C#N)c3)c2C(F)F)S(=O)(=O)C1(F)F` [Compound 43, (R)-3-((4-(Difluoromethyl)-2,2-difluoro-3-hydroxy-1,1-dioxido-2,3-dihydrobenzo[b]thiophen-5-yl-3-d)oxy)-5-fluorobenzonitrile], for which the IC50 in assay [1] (setting [5]) is […]. Besides, the half-maximal effective concentration (EC50) in the assay with 786-O-Hif-Luc cells (setting [4]) was 6 nM.
`N=S1(=O)c2ccc(Oc3cc(F)cc(F)c3)c(C(F)F)c2C(O)C1(F)F` (stereo not shown) [Compound 53, 4-(difluoromethyl)-5-(3,5-difluorophenoxy)-2,2-difluoro-3-hydroxy-1-imino-2,3-dihydro-1H-1λ^4-benzo[b]thiophene 1-oxide]: the 50% effective concentration (EC50) in the assay with 786-O-Hif-Luc cells (setting [4]) was 39 nM; in assay [2], 67 nM.
Regarding `O=S1(=O)c2ccc(Oc3cc(F)cc(Cl)c3)c(Br)c2[C@H](O)C1(F)F` [Compound 59, (3S)-4-Bromo-5-(3-chloro-5-fluoro-phenoxy)-2,2-difluoro-1,1-dioxo-3H-benzothiophen-3-ol], the IC50 in assay [3] (setting [5]) is 60 nM. Besides, in the assay on 786-O-Hif-Luc cells (setting [4]), the EC50 came to 170 nM.
For the molecule `CC1(C)C(O)c2c(ccc(Oc3cc(F)cc(Cl)c3)c2Br)S1(=O)=O` (stereo not shown) [Compound 60, 4-Bromo-5-(3-chloro-5-fluoro-phenoxy)-2,2-dimethyl-1,1-dioxo-3H-benzothiophen-3-ol], the IC50 in assay [1] (setting [5]) was found to be 21900 nM.
As for `N#Cc1c(Oc2cc(F)cc(F)c2)ccc2c1[C@@H](O)CS2(=O)=O` [Compound 68, (R)-5-(3,5-difluorophenoxy)-3-hydroxy-2,3-dihydrobenzo[b]thiophene-4-carbonitrile 1,1-dioxide], the IC50 in assay [3] is 125 nM. For the same molecule, in the assay on 786-O-Hif-Luc cells (setting [6]), the EC50 amounted to 370 nM.
For the molecule `N#Cc1c(Oc2cccc(F)c2)ccc2c1[C@@H](O)CS2(=O)=O` [Compound 76, (R)-5-(3-fluorophenoxy)-3-hydroxy-2,3-dihydrobenzo[b]thiophene-4-carbonitrile 1,1-dioxide], the IC50 in assay [3] (setting [5]) worked out at 750 nM. Further, in the assay with 786-O-Hif-Luc cells (setting [6]), the EC50 came to 490 nM.
As to `CC1(O)c2c(ccc(Oc3cc(F)cc(C#N)c3)c2C#N)S(=O)(=O)C1(F)F` (stereo not shown) [Compound 105, 5-(3-Cyano-5-fluorophenoxy)-2,2-difluoro-3-hydroxy-3-methyl-2,3-dihydrobenzo[b]thiophene-4-carbonitrile 1,1-dioxide], the EC50 in the assay on 786-O-Hif-Luc cells (setting [6]) worked out at 48 nM.
Turning to `N#CC1(COc2ccc3c(c2C(F)F)C(O)C(F)(F)S3(=O)=O)CC1` (stereo not shown) [Compound 109, 1-(((4-(difluoromethyl)-2,2-difluoro-3-hydroxy-1,1-dioxido-2,3-dihydrobenzo[b]thiophen-5-yl)oxy)methyl)cyclopropane-1-carbonitrile], the EC50 in the assay on 786-O-Hif-Luc cells (setting [6]) came to 6700 nM.
Take `CC(C)Oc1ccc2c(c1C#N)C(C)(O)C(F)(F)S2(=O)=O` (stereo not shown) [Compound 110, 2,2-Difluoro-3-hydroxy-5-isopropoxy-3-methyl-2,3-dihydrobenzo[b]thiophene-4-carbonitrile 1,1-dioxide]: in the assay on 786-O-Hif-Luc cells (setting [6]), the EC50 amounted to 5400 nM.
`C[C@@]1(O)c2c(ccc(Oc3cc(F)cc(C#N)c3)c2C#N)S(=O)(=O)C1(F)F` [Compound 112, (R)-5-(3-cyano-5-fluorophenoxy)-2,2-difluoro-3-hydroxy-3-methyl-2,3-dihydrobenzo[b]thiophene-4-carbonitrile 1,1-dioxide]: the EC50 turned out to be 18 nM with 786-O-Hif-Luc cells (setting [6]) and 31 nM in assay [2] (Homo sapiens, 786-0).
Take `N[C@@H]1c2c(ccc(Oc3cc(F)cc(Br)c3)c2Br)S(=O)(=O)C1(F)F` [Compound 116, (R)-3-Amino-4-bromo-5-(3-bromo-5-fluorophenoxy)-2,2-difluoro-2,3-dihydrobenzo[b]thiophene 1,1-dioxide]: in the assay on 786-O-Hif-Luc cells (setting [6]), the EC50 was 800 nM.
Consider `N#Cc1cc(F)cc(Oc2ccc3c(c2C#N)C(N)C(F)(F)S3(=O)=O)c1` (stereo not shown) [Compound 118, 3-Amino-5-(3-cyano-5-fluorophenoxy)-2,2-difluoro-2,3-dihydrobenzo[b]thiophene-4-carbonitrile 1,1-dioxide], for which, in assay [3] (setting [5]), the IC50 stood at 1230 nM. Moreover, in the assay with 786-O-Hif-Luc cells (setting [6]), the EC50 amounted to 4600 nM.

As usually defined, the IC50 is the concentration that inhibits the measured activity by half. For orientation: EC50 means the concentration needed to bring the measured effect to its halfway point.
